Laboratory results as given in paper PMC11053687, “Synthesis and Pharmacological Characterization of New Photocaged Agonists for Histamine H3 and H4 Receptors” (Pharmaceuticals, 2024).
Values after ≈ are worked out from the molar mass of the structure shown. Read-outs that look alike come from different tables or passages of the source.

Legend:
human H4R = biological target: T1, human H4R (Homo sapiens, UniProt Q9H3N8); assay: [3H]histamine competition binding, membranes of HEK293T cells transiently expressing H4R
T1 construct: expressed in transfected cells; host or cells: HEK293T (transient, PEI); membranes
T1 sequence (Q9H3N8 whole entry): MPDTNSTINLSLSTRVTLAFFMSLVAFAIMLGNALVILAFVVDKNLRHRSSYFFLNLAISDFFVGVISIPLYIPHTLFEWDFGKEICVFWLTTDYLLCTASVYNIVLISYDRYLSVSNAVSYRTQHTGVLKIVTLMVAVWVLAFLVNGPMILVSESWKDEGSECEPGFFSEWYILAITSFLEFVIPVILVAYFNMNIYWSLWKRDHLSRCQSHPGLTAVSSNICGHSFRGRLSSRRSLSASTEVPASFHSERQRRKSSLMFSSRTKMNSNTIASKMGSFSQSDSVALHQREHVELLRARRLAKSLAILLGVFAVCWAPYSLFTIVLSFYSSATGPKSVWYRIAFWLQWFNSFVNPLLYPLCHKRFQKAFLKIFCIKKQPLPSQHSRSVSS
Protocol: (§1) Both GPCRs were transiently expressed in HEK293T cells.
(§2) Membranes were collected from HEK293T cells transiently transfected with H3R or H4R by PEI method. In brief, 2 million HEK293T cells were seeded into a 10 cm dish one day before transfection. The next day, the cells were transfected with 2.5 μg cDNA encoding H3R (GenBank accession number AF140538) or H4R (GenBank accession number AY136745) supplemented with 2.5 μg empty pcDEF3 [45] plasmid using 20 μg PEI. Two days after transfection, the transfected HEK293T cells were detached using ice-cold PBS, and the membrane pellets were subsequently collected by centrifuging at 1932× g at 4 °C for 10 min.
For competition binding assays, the tested compounds were pre-irradiated to reach the uncaged state. […] After drying for 30 min at 55 °C, the radioactivity remaining on the filters was quantified using a Microbeta Wallac Trilux scintillation counter, following the addition of scintillation liquid with a two-hour delay.
All data are shown as mean ± S.D. from three individual experiments performed in triplicate. Figures were generated and data analyzed by Prism 9. […] In FRET-EPAC assays, the ligand-induced cAMP inhibition was quantified by FRET ratios, dividing the FRET signal at 530 nm by the signal at 480 nm. […]

[1] = Nephelometry (aqueous solubility); assay type: physicochemical; settings: 50 mM Tris-HCl buffer with 1% DMSO, pH 7.4, aqueous buffer, kinetic from dmso stock, in the dark, read-out: aqueous solubility (limit)
[2] = UV-Vis absorption in Tris-HCl buffer; assay type: physicochemical; settings: Tris-HCl buffer (50 mM, pH 7.4)
Protocol: Next, the photochemical properties of the caged VUF25657 and VUF25678 were investigated. […] Based on the photochemical stability results in Figure S2, photo characterizations of VUF25657 and VUF25678 were performed under red LED light. Due to the low absorbance of immepip and 4-methylhistamine at 230 and 254 nm, a quantitative analysis method based on mass (MS) detection was employed. First, calibration curves of monitored compounds with the corresponding reference compound of the same molecular weight were built (Figure S3). Then, after illumination, the reference compounds were added to LCMS samples as internal standards. Based on the MS signal areas, the concentrations of caged compounds and parent compounds could be monitored. In Tris-HCl buffer (50 mM, pH 7.4), the absorption maximum (λmax) was determined to be 551 nm for VUF25657 (Figure 1A) and 546 nm for VUF25678 (Figure S4A). […] After 180 s of illumination, the concentration of immepip reached 0.92 μM, amounting to 29% uncaging efficiency. […]
Figure 1 Photo-uncaging followed by UV–Vis (ultraviolet-visible) and LC–MS analysis. (A) VUF25657 (3.2 μM) was illuminated under 560 nm in Tris-HCl buffer (50 mM, pH 7.4)/1% DMSO at room temperature and a UV–Vis spectrum was measured at intervals. […]
measured at intervals; (B) […] (3.2 μM) was illuminated under green LED light in Tris-HCl buffer (50 […]

[3] = Photo-uncaging at 560 nm followed by LC-MS with internal standard; assay type: physicochemical; settings: VUF25657 3.2 μM in Tris-HCl buffer
Protocol: Next, the photochemical properties of the caged VUF25657 and VUF25678 were investigated. […] Based on the photochemical stability results in Figure S2, photo characterizations of VUF25657 and VUF25678 were performed under red LED light. Due to the low absorbance of immepip and 4-methylhistamine at 230 and 254 nm, a quantitative analysis method based on mass (MS) detection was employed. First, calibration curves of monitored compounds with the corresponding reference compound of the same molecular weight were built (Figure S3). Then, after illumination, the reference compounds were added to LCMS samples as internal standards. Based on the MS signal areas, the concentrations of caged compounds and parent compounds could be monitored. In Tris-HCl buffer (50 mM, pH 7.4), the absorption maximum (λmax) was determined to be 551 nm for VUF25657 (Figure 1A) and 546 nm for VUF25678 (Figure S4A). […] After 180 s of illumination, the concentration of immepip reached 0.92 μM, amounting to 29% uncaging efficiency. Further illumination led to a decreased immepip concentration (for example, 0.53 μM at 20 min). One potential explanation for this could be the reaction of immepip with side products or intermediates formed during the uncaging process.
Figure 1 Photo-uncaging followed by UV–Vis (ultraviolet-visible) and LC–MS analysis. (A) VUF25657 (3.2 μM) was illuminated under 560 nm in Tris-HCl buffer (50 mM, pH 7.4)/1% DMSO at room temperature and a UV–Vis spectrum was measured at intervals. Only the 350–750 nm region is shown; (B) VUF25657 (3.2 μM) was illuminated under green LED light in Tris-HCl buffer (50 mM, pH 7.4)/1% DMSO at 37 °C and LC–MS analysis was performed at different time points using an internal standard.

H3R [4] = biological target: T2, H3R (Homo sapiens, UniProt Q9Y5N1); assay: [3H]NAMH competition binding, membranes of HEK293T cells transiently expressing H3R; parameters: expressed in transfected cells; host or cells: HEK293T (transient, PEI); membranes
T2 sequence (Q9Y5N1 whole entry): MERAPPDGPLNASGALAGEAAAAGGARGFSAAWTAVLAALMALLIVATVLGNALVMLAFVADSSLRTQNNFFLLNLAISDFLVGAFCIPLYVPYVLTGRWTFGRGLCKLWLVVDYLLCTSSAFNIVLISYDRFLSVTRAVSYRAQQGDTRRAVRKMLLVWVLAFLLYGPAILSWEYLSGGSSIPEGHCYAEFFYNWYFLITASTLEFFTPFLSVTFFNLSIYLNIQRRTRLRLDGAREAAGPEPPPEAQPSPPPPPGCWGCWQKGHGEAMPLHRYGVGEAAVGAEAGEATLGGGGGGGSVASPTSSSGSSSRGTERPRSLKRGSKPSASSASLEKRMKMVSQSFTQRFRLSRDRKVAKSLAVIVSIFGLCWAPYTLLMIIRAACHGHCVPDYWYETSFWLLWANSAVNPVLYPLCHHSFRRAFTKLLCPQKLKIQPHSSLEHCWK
Protocol: as §1, §2
For competition binding assays, the tested compounds were pre-irradiated to reach the uncaged state. In brief, 0.3 mM stock of photocaged ligand (dissolved in DMSO) was divided into two samples, one of which was subsequently diluted in Tris-HCl buffer (50 mM, pH 7.4) to 3 μM and then irradiated by 560 nm to reach the uncaged state, as confirmed by LC–MS, and the other sample was kept in dark to retain its caged state. The prepared membrane pellets expressing H3R or H4R were resuspended in Tris-HCl buffer (50 mM, pH 7.4) and disrupted by 5 s sonication to make membrane suspension. Next, all the following handling was performed under near-infrared light. […] Following one hour of incubation with continuous shaking at 225 rpm at 25 °C, the reaction was terminated by transferring the mixture to GF/C filter plates that were pre-soaked with a solution containing 0.5% PEI and washed with cold Tris-HCl buffer. After drying for 30 min at 55 °C, the radioactivity remaining on the filters was quantified using a Microbeta Wallac Trilux scintillation counter, following the addition of scintillation liquid with a two-hour delay.
(§3) All data are shown as mean ± S.D. from three individual experiments performed in triplicate. Figures were generated and data analyzed by Prism 9. In radioligand binding assays, the competition binding curves were fitted by ‘one-site—Fit Ki’ to obtain the equilibrium dissociation constants of unlabeled ligands (Ki) by Cheng-Prusoff equation [46]. In FRET-EPAC assays, the ligand-induced cAMP inhibition was quantified by FRET ratios, dividing the FRET signal at 530 nm by the signal at 480 nm. The response was represented as ΔFRET ratios, obtained by the analysis of ‘Fractional difference: (Value—Baseline)/Baseline’. Then the concentration–response curves were fitted using the model: ‘log(agonist) vs. response (three parameters)’ to obtain potency (pEC50).
Figure 2 Displacement binding curves of parent, caged, and uncaged ligands for H3R (A) and H4R (B). […] Caged ligands were either kept in dark or pre-irradiated at 560 nm for 3 min for VUF25657 and 5 min for VUF25678 to achieve the uncaged state. Data shown are mean ± S.D. from three or four independent experiments, each performed in triplicate.

H3R [5] = biological target: T2, H3R; assay: cAMP inhibition by FRET-EPAC biosensor in HEK293-EPAC cells stably expressing H3R; assay type: cell-based; parameters: expressed in transfected cells; host or cells: HEK293 cells stably expressing EPAC-cAMP FRET biosensor and H3R; settings: for EC50: inhibition of cAMP induced by 10 nM isoprenaline, FRET after 20 min
Protocol: H3R primarily couples to Gαi protein, which upon activation causes a decrease in intracellular cAMP levels via the inhibition of adenylate cyclase. Therefore, the HEK-EPAC cells were pre-treated with 10 nM of the beta2 adrenergic receptor (β2AR) agonist isoprenaline before H3R stimulation to enhance the basal intracellular cAMP levels via β2AR-Gαs activation. As anticipated, the H3R selective agonist immepip reduced the isoprenaline-induced cAMP accumulation, as detected by an increased FRET (fluorescence resonance energy transfer) signal in the EPAC (exchange protein directly activated by cAMP) biosensor (Figure 3A).
HEK293T cells (ATTC, CRL-1573) were cultured in DMEM supplemented with 10% FBS and 1% P/S in a humidified incubator at 37 °C with 5% CO2. The HEK293 cell line stably expressing an EPAC-cAMP FRET biosensor was kindly provided by Dr. M. Zimmermann (Interax Biotech, Basal, Switzerland). HEK293-EPAC cells stably co-expressing the H3R (GenBank accession number NM_007232.3) were generated as previously described.
EPAC-H3R cells were seeded into black 96-well plates with 50,000 cells per well one day before the experiment. The next day, the culture medium was replaced with HBSS. Subsequently, 10 nM isoprenaline (dissolved in HBSS supplemented with 20 mM thiourea) was added for 10 min incubation to elevate basal cAMP levels. Fluorescence resonance energy transfer (FRET) measurements were recorded by CLARIOstar plate reader in real-time or at 20 min after ligand stimulation.
as §3
Figure 3 Optical modulation of VUF25657-induced cAMP inhibition in EPAC-H3R cells. Real time modulation of isoprenaline-induced cAMP acumination in HEK-EPAC cells by 1 μM immepip (A). Modulation of isoprenaline-induced cAMP acumination in HEK-EPAC cells by increasing concentrations of VUF25657 (B). HEK-EPAC cells stably expressing H3R were pre-stimulated with 10 nM isoprenaline for 10 min before ligand addition. The FRET signal of the EPAC-sensor was measured after 20 min treatment of indicated ligands. VUF25657 was either kept in dark or pre-irradiated at 560 nm for 3 min to release the BODIPY cage. Data are mean ± S.D. from four independent experiments performed, each in triplicate.

H3R [6] = biological target: T2, H3R; parameters: expressed in transfected cells; host or cells: HEK293 cells stably expressing EPAC-cAMP FRET biosensor and H3R; method as in PMID 30249614; settings: saturation binding of the radioligand to H3R; cited from earlier work
[7] = after 180 s of illumination at 560 nm

For `Cc1[nH]cnc1CCN` [4-methylhistamine, 2-(5-methyl-1H-imidazol-4-yl)ethan-1-amine, reference compound], the “pKi +560 nm” value (human H4R; H4R, displacement of 4 nM [3H]histamine, pre-irradiated at 560 nm (5 min for VUF25678)) was 7.2 ± 0.1 (3).
For `CCC1=C(C)C2=C(COC(=O)N3CCC(Cc4c[nH]cn4)CC3)c3c(C)c(CC)c(C)n3[B-](F)(F)[N+]2=C1C` [VUF25657, (2,8-Diethyl-5,5-difluoro-1,3,7,9-tetramethyl-5H-4λ^4,5λ^4-dipyrrolo [1,2-c:2′,1′-f][1,3,2]diazaborinin-10-yl)methyl 4-((1H-imidazol-4-yl)methyl)piperidine-1-carboxylate], the solubility [1] was 3.2 µM (≈ 1.68 µg/mL), the “absorption maximum (λmax)” value [2] was 551 nm and the “concentration of immepip released” value [3, 7] was 920 nM. For the same compound, the uncaging efficiency [3, 7] was 29%, the “concentration of immepip released” value ([3]; illumination at 560 nm, at 20 min) was 530 nM and the melting point was 148.7 to 150.7 °C. The Ki (H3R [4]; H3R, displacement of 2 nM [3H]NAMH, compound kept in dark (caged state), read-out: pKi In Dark (converted)) was 50.1 nM, the “decrease in affinity for H3R compared with immepip” value (H3R [4]; caged state (dark) vs parent immepip) was 125 fold and the “increase in H3R affinity after illumination in comparison to caged state” value (H3R [4]; illumination at 560 nm vs dark) was 12 fold. For the same compound, the “decrease in potency of cAMP inhibition compared with immepip” value (H3R [5]; caged state (dark) vs parent immepip, listed as 5 (VUF25657)) was greater than 100 fold, the EC50 (H3R [5]; kept in dark, read-out: pEC50 In Dark (converted)) was 10 nM and the “higher potency of cAMP inhibition after irradiation than caged state” value (H3R [5]; irradiation at 560 nm vs dark) was 20 fold.
With `CCC1=C(C)C2=C(COC(=O)NCCc3nc[nH]c3C)c3c(C)c(CC)c(C)n3[B-](F)(F)[N+]2=C1C` [VUF25678, (2,8-Diethyl-5,5-difluoro-1,3,7,9-tetramethyl-5H-4λ^4,5λ^4-dipyrrolo [1,2-c:2′,1′-f][1,3,2]diazaborinin-10-yl)methyl (2-(5-methyl-1H-imidazol-4-yl)ethyl)carbamate] the “reduction in affinity for H4R on caging” value (human H4R; caged compound vs parent 4-methylhistamine) was 10–100 fold, the solubility [1] was 3.2 µM (≈ 1.55 µg/mL) and the “absorption maximum (λmax)” value [2] was 546 nm. The melting point was 108.8 to 116.3 °C.
In the case of `CNCCc1cnc[nH]1` [[^3H]NAMH, N-α-[methyl-^3H] histamine], the Kd (H3R [6]) is given as 1.37 nM.
In the case of `c1nc(CC2CCNCC2)c[nH]1` [immepip, 4-((1H-imidazol-4-yl)methyl)piperidine, reference compound], the “pKi In Dark” value (H3R [4]; H3R, displacement of 2 nM [3H]NAMH, compound kept in dark (caged state)) is reported as 9.4 ± 0.2 (4), the “pKi +560 nm” value (H3R [4]; H3R, displacement of 2 nM [3H]NAMH, pre-irradiated at 560 nm (3 min for VUF25657)) is reported as 9.4 ± 0.3 (4) and the EC50 (H3R [5]; pEC50 +560 nm, pre-irradiated at 560 nm for 3 min) is reported as 0.0631 nM. The EC50 (H3R [5]; pEC50 In Dark, kept in dark) was 0.0316 nM.
